Test results reported in ChEMBL document CHEMBL1201862, “PubChem BioAssay data set” (2004).
Activity calls are given as the source filed them.

How the values were obtained:
[1] = molecular target: T1, Sentrin-specific protease 6 (Homo sapiens, UniProt Q9GZR1); format: functional;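 note: Luminescence-based dose-response confirmatory assay of SENP6 inhibition, following up an ultra-high-throughput screen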
T1 sequence (Q9GZR1 whole entry): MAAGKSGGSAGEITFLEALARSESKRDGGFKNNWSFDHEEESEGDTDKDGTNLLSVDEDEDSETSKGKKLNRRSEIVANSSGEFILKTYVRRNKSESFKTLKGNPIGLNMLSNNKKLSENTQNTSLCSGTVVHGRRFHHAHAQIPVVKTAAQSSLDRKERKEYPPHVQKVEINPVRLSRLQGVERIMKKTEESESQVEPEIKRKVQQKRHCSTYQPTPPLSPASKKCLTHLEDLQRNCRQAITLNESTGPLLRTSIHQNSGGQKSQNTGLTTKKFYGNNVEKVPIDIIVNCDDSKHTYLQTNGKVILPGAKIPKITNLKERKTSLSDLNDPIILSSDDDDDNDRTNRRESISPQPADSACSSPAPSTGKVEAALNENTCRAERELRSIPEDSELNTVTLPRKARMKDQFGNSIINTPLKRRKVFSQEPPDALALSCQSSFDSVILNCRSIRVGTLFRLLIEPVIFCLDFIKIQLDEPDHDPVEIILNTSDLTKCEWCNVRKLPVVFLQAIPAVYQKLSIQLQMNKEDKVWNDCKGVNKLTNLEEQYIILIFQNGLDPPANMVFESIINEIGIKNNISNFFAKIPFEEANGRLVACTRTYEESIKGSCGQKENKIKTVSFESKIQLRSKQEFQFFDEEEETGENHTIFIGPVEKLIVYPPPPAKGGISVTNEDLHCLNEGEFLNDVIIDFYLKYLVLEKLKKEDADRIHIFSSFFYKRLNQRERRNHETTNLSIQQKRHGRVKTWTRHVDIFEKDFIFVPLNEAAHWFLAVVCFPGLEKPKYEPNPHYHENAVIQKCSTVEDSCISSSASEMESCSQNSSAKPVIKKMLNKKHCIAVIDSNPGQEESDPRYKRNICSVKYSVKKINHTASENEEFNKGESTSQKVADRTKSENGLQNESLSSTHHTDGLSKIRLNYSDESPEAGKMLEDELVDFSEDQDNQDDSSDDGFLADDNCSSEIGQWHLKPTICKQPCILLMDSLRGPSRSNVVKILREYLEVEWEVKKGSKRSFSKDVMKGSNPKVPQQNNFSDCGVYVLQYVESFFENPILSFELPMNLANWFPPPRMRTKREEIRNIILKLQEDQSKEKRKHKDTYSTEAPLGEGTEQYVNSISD

Caspase-3 = molecular target: T2, Caspase-3 (Homo sapiens, UniProt P42574); format: functional;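 note: Dose-response selectivity test against caspase-3 for candidate inhibitors of sentrin-specific proteases (SENPs)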
T2 sequence (P42574 whole entry): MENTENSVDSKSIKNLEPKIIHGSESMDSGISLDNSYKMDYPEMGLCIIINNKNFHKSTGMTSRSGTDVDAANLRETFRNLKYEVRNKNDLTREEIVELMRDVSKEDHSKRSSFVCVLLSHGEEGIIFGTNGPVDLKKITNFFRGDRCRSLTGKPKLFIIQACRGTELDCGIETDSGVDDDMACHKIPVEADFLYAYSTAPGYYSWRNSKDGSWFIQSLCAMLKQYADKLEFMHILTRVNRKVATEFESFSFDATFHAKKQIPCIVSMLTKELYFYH

[2] = molecular target: T3, Sentrin-specific protease 8 (Homo sapiens, UniProt Q96LD8); format: functional;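 note: luminescence read-out of SENP8 inhibition, dose-response confirmation following an ultra-high-throughput screen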
T3 sequence (Q96LD8 whole entry): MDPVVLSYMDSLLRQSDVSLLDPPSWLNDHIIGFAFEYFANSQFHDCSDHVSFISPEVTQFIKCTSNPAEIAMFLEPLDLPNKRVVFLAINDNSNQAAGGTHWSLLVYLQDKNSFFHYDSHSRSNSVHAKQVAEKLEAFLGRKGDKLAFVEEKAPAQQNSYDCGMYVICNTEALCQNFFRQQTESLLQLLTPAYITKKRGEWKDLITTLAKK

[3] = molecular target: T4, Sentrin-specific protease 7 (Homo sapiens, UniProt Q9BQF6); format: functional;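 note: Luminescence-based dose-response confirmation of ultra-high-throughput screening hits, measuring inhibition of SENP7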
T4 sequence (Q9BQF6 whole entry): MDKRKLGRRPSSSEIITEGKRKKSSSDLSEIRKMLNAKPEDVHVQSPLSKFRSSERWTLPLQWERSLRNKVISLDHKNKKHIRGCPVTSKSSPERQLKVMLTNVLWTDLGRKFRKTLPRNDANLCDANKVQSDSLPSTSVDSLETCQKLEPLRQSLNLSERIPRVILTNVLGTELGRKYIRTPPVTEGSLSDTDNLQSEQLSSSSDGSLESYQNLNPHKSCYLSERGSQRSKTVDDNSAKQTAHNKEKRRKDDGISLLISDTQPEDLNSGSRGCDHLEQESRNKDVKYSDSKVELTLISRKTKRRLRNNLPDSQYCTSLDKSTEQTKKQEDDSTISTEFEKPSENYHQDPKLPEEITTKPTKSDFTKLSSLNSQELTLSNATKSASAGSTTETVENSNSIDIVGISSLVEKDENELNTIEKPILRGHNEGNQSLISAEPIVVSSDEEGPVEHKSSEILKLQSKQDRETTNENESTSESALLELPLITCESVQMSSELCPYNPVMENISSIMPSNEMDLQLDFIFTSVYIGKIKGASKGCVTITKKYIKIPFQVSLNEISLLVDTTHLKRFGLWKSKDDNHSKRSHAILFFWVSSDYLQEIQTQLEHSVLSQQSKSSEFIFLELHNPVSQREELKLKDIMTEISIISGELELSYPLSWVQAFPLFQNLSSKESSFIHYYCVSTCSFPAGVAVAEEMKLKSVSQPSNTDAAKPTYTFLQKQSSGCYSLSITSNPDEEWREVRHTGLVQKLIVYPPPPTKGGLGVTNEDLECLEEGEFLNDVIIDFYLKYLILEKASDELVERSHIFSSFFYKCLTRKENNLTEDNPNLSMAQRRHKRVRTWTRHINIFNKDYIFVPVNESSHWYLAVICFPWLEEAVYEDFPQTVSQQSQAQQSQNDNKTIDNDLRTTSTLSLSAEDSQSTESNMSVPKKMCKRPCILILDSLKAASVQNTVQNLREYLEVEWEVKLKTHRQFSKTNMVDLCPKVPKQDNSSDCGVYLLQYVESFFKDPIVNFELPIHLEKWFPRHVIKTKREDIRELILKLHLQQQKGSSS

[4] = viability of uninfected HEp-2 cells – cell-based, HTS, cytotoxicity control for RSV inhibitor project, dose response (AID 2410); format: functional; conditions: human respiratory syncytial virus
[5] = molecular target: T5, Short transient receptor potential channel 4 (Mus musculus, UniProt Q9QUQ5); assay: calcium entry via TRPC4 opening agents – cell-based, HEK293 TRPC4/mu-opioid, Fluo-4 calcium, dose response (AID 434937); format: functional
T5 sequence (Q9QUQ5 whole entry): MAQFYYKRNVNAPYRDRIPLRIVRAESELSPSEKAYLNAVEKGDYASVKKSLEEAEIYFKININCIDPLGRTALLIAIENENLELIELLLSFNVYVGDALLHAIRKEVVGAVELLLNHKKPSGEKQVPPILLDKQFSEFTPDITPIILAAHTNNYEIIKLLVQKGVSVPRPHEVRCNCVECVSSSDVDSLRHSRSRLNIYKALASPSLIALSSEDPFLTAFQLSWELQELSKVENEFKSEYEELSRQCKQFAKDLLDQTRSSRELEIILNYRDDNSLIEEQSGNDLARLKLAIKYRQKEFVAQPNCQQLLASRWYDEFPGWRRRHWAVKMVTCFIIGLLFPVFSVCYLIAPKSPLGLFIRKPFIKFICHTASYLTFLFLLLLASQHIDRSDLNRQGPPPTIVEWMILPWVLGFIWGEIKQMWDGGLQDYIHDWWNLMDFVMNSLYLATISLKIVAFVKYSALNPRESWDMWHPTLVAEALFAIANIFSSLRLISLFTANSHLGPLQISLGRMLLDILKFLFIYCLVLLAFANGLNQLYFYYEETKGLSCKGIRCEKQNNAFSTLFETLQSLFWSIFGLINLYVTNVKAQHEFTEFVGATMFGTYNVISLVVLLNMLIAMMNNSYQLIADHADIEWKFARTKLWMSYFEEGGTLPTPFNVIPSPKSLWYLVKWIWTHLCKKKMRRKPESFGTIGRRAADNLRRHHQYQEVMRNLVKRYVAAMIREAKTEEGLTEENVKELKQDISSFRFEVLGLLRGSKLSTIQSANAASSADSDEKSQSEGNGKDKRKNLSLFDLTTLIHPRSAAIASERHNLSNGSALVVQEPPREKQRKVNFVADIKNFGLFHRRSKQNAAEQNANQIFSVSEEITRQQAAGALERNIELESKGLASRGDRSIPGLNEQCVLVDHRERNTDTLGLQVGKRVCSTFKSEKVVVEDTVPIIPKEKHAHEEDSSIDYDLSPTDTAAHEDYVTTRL

[6] = luciferase reporter signal suppression in cells – H4 neuroglioma cells, luminescence, dose response (AID 1990); format: functional, cell-based
[7] = Luminescence Cell-Based Dose Response HTS to Identify Inhibitors of 5'UTR Stem-Loop Driven Prion Protein mRNA Translation in H4 Neuroglioblastoma Cells. [Related pubchem assays: 1827 (Project Summary), 1813 (Primary HTS)]; format: functional
[8] = alpha-synuclein stem-loop luciferase translation blockers – H4 neuroglioma cells, luminescence, confirmation (AID 1988); format: functional, cell-based
[9] = molecular target: T6, Polyadenylate-binding protein 1 (Homo sapiens, UniProt P11940); assay: MLLE binding blockers, Cy5 peptide tracer – biochemical, fluorescence polarization, Cy5-PAM2 peptide, secondary, miRNA deadenylation inhibitor project, dose response (AID 602260); format: functional; conditions: read-out: IC50_Mean
[10] = molecular target: T6, Polyadenylate-binding protein 1; assay: MLLE domain peptide-binding blockers, IC50 – biochemical, fluorescence polarization, FITC-PAM2 peptide, dose response (AID 602259); format: functional; conditions: read-out: IC50_Mean
[11] = NIH3T3 cell viability loss – ATP luminescence, mouse fibroblasts, counter-screen, dose response (AID 2010); format: functional, cell-based;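 note: cells exposed to compound for about 90 hours before reading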
[12] = Trypanosoma cruzi growth suppression in host cells – NIH3T3 host cells, beta-gal luminescence, confirmation (AID 2044); format: functional, cell-based;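 note: intracellular parasites grown in NIH/3T3 mouse fibroblasts as host cells; luminescent beta-galactosidase reporter signal from transgenic T. cruzi replicating inside host cells; inhibitors lower the luminescence signal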
[13] = reduction of Shn3 3'UTR-driven luciferase in osteoblasts – cell-based, Clone20 osteoblasts, firefly luciferase, cherry-picked, dose response (AID 624132); format: functional;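 note: firefly luciferase luminescence from reporter carrying the Shn3 3'UTR in osteoblasts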
[14] = non-specific 3'UTR reporter inhibition in Clone20-Shn3RL – cell-based, Renilla luciferase, cherry-picked, counter-screen for Shn3 inhibitor project, dose response (AID 624133); format: functional
INS1 = assay: INS-1E survival protection against cytokine death – cell-based, luminescence, retest, dose response (AID 449756); format: functional; conditions: Rattus norvegicus;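 note: cell death triggered by IL-1 beta plus TNF-alpha plus IFN-gamma mixture; protective hits raise ATP signal compared with cytokine alone wells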
[15] = loss of viability in HepG2 cells – cell-based, CellTiter-Glo, cherry-picked, cytotoxicity control for Shn3 inhibitor project, dose response (AID 624134); format: functional
[16] = Luminescence Cell-Based Dose Confirmation HTS to Identify Activators of 5'UTR Stem-Loop Driven Alpha-Synuclein mRNA Translation in H4 Neuroglioblastoma Cells. [Related pubchem assays: 1829 (Project Summary), 1814 (Primary HTS)]; format: functional
[17] = microbe, parasite or virus in culture; format: functional; conditions: Mycobacterium tuberculosis
H4 = assay: Luminescence Cell-Based Dose Response HTS to Identify Activators of 5'UTR Stem-Loop Driven Prion Protein mRNA Translation in H4 Neuroglioblastoma Cells. [Related pubchem assays: 1829 (Project Summary), 1814 (Primary HTS)]; format: functional; conditions: Homo sapiens
[18] = Luminescence Cell-Based Dose Response HTS to Identify Activators of Luciferase Translation or Activity in H4 […] Cells. [Related pubchem assays: 1829 (Project Summary), 1814 (Primary HTS)]; format: functional
[19] = Luminescence Cell-Based Dose Retest to Confirm Inhibitors of Cancer Stem Cells. [Related pubchem assays (depositor defined):AID2717, AID2721]; format: functional; conditions: Homo sapiens

T6 sequence (P11940 whole entry, the tested form may be a part): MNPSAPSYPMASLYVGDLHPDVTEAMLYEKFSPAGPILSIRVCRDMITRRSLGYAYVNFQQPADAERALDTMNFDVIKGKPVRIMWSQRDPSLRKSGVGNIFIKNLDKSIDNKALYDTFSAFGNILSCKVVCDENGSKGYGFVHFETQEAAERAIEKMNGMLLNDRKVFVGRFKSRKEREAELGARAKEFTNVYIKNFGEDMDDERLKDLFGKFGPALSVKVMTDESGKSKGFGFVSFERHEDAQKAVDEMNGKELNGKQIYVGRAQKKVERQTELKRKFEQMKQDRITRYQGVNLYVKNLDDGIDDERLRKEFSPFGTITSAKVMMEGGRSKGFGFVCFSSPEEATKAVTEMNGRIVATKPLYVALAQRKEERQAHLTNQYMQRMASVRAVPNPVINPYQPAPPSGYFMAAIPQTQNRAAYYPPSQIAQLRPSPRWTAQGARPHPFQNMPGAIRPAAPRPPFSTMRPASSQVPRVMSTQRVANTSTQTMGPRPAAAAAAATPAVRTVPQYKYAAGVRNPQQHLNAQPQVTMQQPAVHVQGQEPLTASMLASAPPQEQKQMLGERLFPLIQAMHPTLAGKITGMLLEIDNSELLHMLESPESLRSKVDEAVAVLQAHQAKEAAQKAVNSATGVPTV

N=c1oc2ccccc2cc1C(=O)Nc1ccccc1
IC50 [1]: 15.6 µM (active)
IC50 (Caspase-3): 13.6 µM (active)
IC50 [2]: > 100 µM (inactive)
IC50 [3]: 11.4 µM (active)

O=C(Oc1ccc2ccccc2c1Cl)N1CCCCCC1
IC50 [1]: 10.6 µM (active)
IC50 (Caspase-3): 17.4 µM (active)
CC50 [4]: 27.6 µM (active)
IC50 [2]: 15.4 µM (active)
IC50 [3]: 7.15 µM (active)

Cc1ccc(Oc2cc(-n3nc(C)cc3C)ncn2)cc1
IC50 [1]: 35.7 µM (active)
IC50 (Caspase-3): 23.5 µM (active)
IC50 [2]: 54.7 µM (active)
IC50 [3]: 9.25 µM (active)

Cc1csc2c(N3CCN(C(S)=Nc4ccc(F)cc4F)CC3)ncnc12
EC50 [5]: 1.88 µM (active)

CN(C)CCCN(C(=O)c1ccc(S(=O)(=O)N2CCCc3ccccc32)cc1)c1nc2ccc(F)cc2s1
EC50 [6]: 12.6 µM (active)
EC50 [7]: > 120 µM (not active)
EC50 [5]: 2.37 µM (active)
EC50 [8]: > 120 µM (not active)

Sc1nnc2c3ccccc3n(CCc3ccccc3)c2n1
IC50 [9]: > 66 µM (inactive)
IC50 [10]: > 66 µM (inactive)
EC50 [11]: > 60 µM (not active)
CC50 [4]: 23.8 µM (active)
EC50 [12]: 2.69 µM (active)

COc1ccccc1/C=C/CN1CCC(n2nccc2NC(=O)CCc2ccccc2)CC1
AC50 [13]: 1.91 µM (active)
AC50 [14]: 4.23 µM (active)
AC50 (INS1): 5.75 µM (active)
AC50 [15]: 42.3 µM (active)

COc1cc(/C=C/C(=O)Nc2nnc(C(C)(C)C)s2)cc(OC)c1OC
IC50 [9]: > 66 µM (inactive)
IC50 [10]: > 66 µM (inactive)

CC(=O)c1cc(-c2ccccc2)[nH]c1N1CCOCC1
IC50 [9]: > 66 µM (inactive)
IC50 [10]: > 66 µM (inactive)

COc1ccc(C2CC(c3cccs3)=Nc3ccccc3S2)cc1 (configuration not stated)
IC50 [9]: > 66 µM (inactive)
IC50 [10]: > 66 µM (inactive)
EC50 [16]: 7.19 µM (active)
CC50 [17]: > 40 µM (active)
EC50 (H4): 7.12 µM (active)
EC50 [18]: 9.21 µM (active)

Cc1ccc(C)c(S(=O)(=O)N2CCN(c3ncnc4sccc34)CC2)c1
AC50 [13]: 0.631 µM (active)
AC50 [14]: 2.38 µM (active)
AC50 (INS1): 3.41 µM (active)
AC50 [15]: 2.55 µM (active)
AC50 [19]: 1.25 µM (active)

CN(CC(=O)Nc1ccccc1Cl)C(=O)c1cccc(S(=O)(=O)N2CCN(Cc3ccccc3)CC2)c1
AC50 [13]: 3.47 µM (active)
AC50 [14]: 4.83 µM (active)
AC50 [15]: 50.5 µM (active)

COc1ccc(Cc2c(C(C)(C)C)nc3c(C)cc(Br)cn23)c(C)c1
IC50 [9]: > 66 µM (inactive)
IC50 [10]: 52.7 µM (inactive)
